Reference: patent US7511119B2, “PRAME peptide analogues” (MannKind Corporation, priority 2005, dated 2009)
Entries after “also recorded” stand apart in the source; their conditions may differ. Square brackets hold non-standard residues; d marks the D form. Ends that are not written are not given here. Peptide text beside a SMILES is read from it. Phe(4-NO2) = N[C@@H](Cc1ccc([N+](=O)[O-])cc1)C(=O)O; Bta = N[C@@H](Cc1csc2ccccc12)C(=O)O; Phg = N[C@H](C(=O)O)c1ccccc1; Nle = CCCC[C@H](N)C(=O)O; Nva = CCC[C@H](N)C(=O)O

Assays:
[1] = biological target: HLA-A*0201 (Homo sapiens, UniProt P04439, D140Y/D185E/D98H/E176V/E277Q/G131W/G231S/I119V/I121R/I166T/I218V/L300P/L318F/N151K/N90K/P208A/P217A/Q86G/Q94H/R138H/R169H/T345S); assay: Peptide binding using T2 cells; conditions: half maximal binding of wild-type peptide relative to analog;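 note: Read-out is peptide-induced stabilization of HLA-A*0201 on the cell surface, reflecting mainly Kon at limiting peptide levels and both Kon and Koff at saturating levels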
Excerpt: Thus, at limiting concentrations of peptide, it is a measurement of Kon mostly and at saturation levels of peptide it is a measurement of both Kon and Koff.
Thus, at limiting concentrations of peptide, this is a measurement of Kon mostly and at saturation levels of peptide that is a measurement of both Kon and Koff.

[2] = test system: T cell lines against natural epitope SSX-241-49; assay: Cross-reactivity and functional avidity: IFN-gamma production by T cell lines raised against natural SSX-2 41-49; type: cell-based, HHD transgenic mice; conditions: for Cross-reactivity and fct avidity (native to analogs)*: T cells raised to native peptide tested on analogs, footnote * and unit not given; for activity in cross-reactivity assay (IFN-gamma production by wild-type SSX-2 41-49 specific T cells), in words: compared with wild-type peptide;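 for all read-outs here: analogs presented ex vivo by competent APCs to T cells specific for the non-mutated epitope, scored by lowest activating concentration, peak cytokine effect and concentration at that peak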

Compound | Relative affinity (1/RA) [1] | Cross-reactivity and fct avidity (native to analogs)* [2] | activity in cross-reactivity assay (IFN-gamma production by wild-type SSX-2 41-49 specific T cells), in words [2]
CC[C@H](C)[C@H](NC(=O)[C@H](CCCCN)NC(=O)[C@H](CCC(=O)O)NC(=O)[C@H](CO)NC(=O)[C@H](C)NC(=O)[C@@H](N)Cc1ccc(OC)cc1)C(=O)N[C@@H](Cc1ccccc1)C(=O)N[C@@H](Cc1ccc(O)cc1)C(=O)N[C@H](C(=O)O)C(C)C [SSX2 41-49 (K41(O-methyl Tyr))] (H-Y(Me)ASEKIFYV-OH) | 0.8 | 3 | –
CC[C@H](C)[C@H](NC(=O)[C@H](CCCCN)NC(=O)[C@H](CCC(=O)O)NC(=O)[C@H](CO)NC(=O)[C@H](C)NC(=O)[C@@H](N)Cc1ccc([N+](=O)[O-])cc1)C(=O)N[C@@H](Cc1ccccc1)C(=O)N[C@@H](Cc1ccc(O)cc1)C(=O)N[C@H](C(=O)O)C(C)C [SSX2 41-49 (K41(Phe-4NO2))] (H-[Phe(4-NO2)]ASEKIFYV-OH) | 1.1 | 3 | –
CC[C@H](C)[C@H](NC(=O)[C@H](CCCCN)NC(=O)[C@H](CCC(=O)O)NC(=O)[C@H](CO)NC(=O)[C@H](C)NC(=O)[C@@H](N)c1ccccc1)C(=O)N[C@@H](Cc1ccccc1)C(=O)N[C@@H](Cc1ccc(O)cc1)C(=O)N[C@H](C(=O)O)C(C)C [SSX2 41-49 (K41(Phg))] (H-[Phg]ASEKIFYV-OH) | 2.5 | 0.1 | –
CC[C@H](C)[C@H](NC(=O)[C@H](CCCCN)NC(=O)[C@H](CCC(=O)O)NC(=O)[C@H](CO)NC(=O)[C@H](C)NC(=O)[C@@H](N)Cc1csc2ccccc12)C(=O)N[C@@H](Cc1ccccc1)C(=O)N[C@@H](Cc1ccc(O)cc1)C(=O)N[C@H](C(=O)O)C(C)C [SSX2 41-49 (K41(b-(3-benzothienyl)Ala))] (H-[Bta]ASEKIFYV-OH) | 0.6 | 10 | –
CCCC[C@H](NC(=O)[C@H](CO)NC(=O)[C@@H](NC(=O)[C@@H](N)Cc1ccccc1)C(C)C)C(=O)N[C@@H](CCCCN)C(=O)N[C@H](C(=O)N[C@@H](Cc1ccccc1)C(=O)N[C@@H](Cc1ccc(O)cc1)C(=O)N[C@H](C(=O)O)C(C)C)[C@@H](C)CC [SSX2 41-49 (K41F, A42V, E44Nle), FVS(Nle)KIFYV] (H-FVS[Nle]KIFYV-OH) | 1.1 | 10 | –
CCC[C@H](NC(=O)[C@H](CO)NC(=O)[C@@H](NC(=O)[C@@H](N)Cc1ccccc1)C(C)C)C(=O)N[C@@H](CCCCN)C(=O)N[C@H](C(=O)N[C@@H](Cc1ccccc1)C(=O)N[C@@H](Cc1ccc(O)cc1)C(=O)N[C@H](C(=O)O)C(C)C)[C@@H](C)CC [SSX2 41-49 (K41F, A42V, E44Nva), FVS(Nva)KIFYV] (H-FVS[Nva]KIFYV-OH) | 3.9 | 3 | –
CCCC[C@H](NC(=O)[C@H](CCCCN)NC(=O)[C@H](CCC(=O)O)NC(=O)[C@H](CO)NC(=O)[C@@H](NC(=O)[C@@H](N)Cc1ccccc1)C(C)C)C(=O)N[C@@H](Cc1ccccc1)C(=O)N[C@@H](Cc1ccc(O)cc1)C(=O)N[C@H](C(=O)O)C(C)C [SSX2 41-49 (K41F, A42V, I46Nle), FVSEK(Nle)FYV] (H-FVSEK[Nle]FYV-OH) | 1.1 | 10 | –
CCC[C@H](NC(=O)[C@H](CCCCN)NC(=O)[C@H](CCC(=O)O)NC(=O)[C@H](CO)NC(=O)[C@@H](NC(=O)[C@@H](N)Cc1ccccc1)C(C)C)C(=O)N[C@@H](Cc1ccccc1)C(=O)N[C@@H](Cc1ccc(O)cc1)C(=O)N[C@H](C(=O)O)C(C)C [SSX2 41-49 (K41F, A42V, I46Nva), FVSEK(Nva)FYV] (H-FVSEK[Nva]FYV-OH) | 2.4 | 1 | –
CC[C@H](C)[C@H](NC(=O)[C@H](CCCCN)NC(=O)[C@H](CCC(=O)O)NC(=O)[C@H](CO)NC(=O)[C@@H](NC(=O)[C@@H](N)Cc1ccccc1)C(C)C)C(=O)N[C@@H](Cc1ccccc1)C(=O)N[C@@H](Cc1ccccc1)C(=O)N[C@H](C(=O)O)C(C)C [SSX2 41-49 (K41F, A42V, Y48F)] | 1.7 | 10 | –
CC[C@H](C)[C@H](NC(=O)[C@H](CCCCN)NC(=O)[C@H](CCC(=O)O)NC(=O)[C@H](CO)NC(=O)[C@H](C)NC(=O)[C@@H](N)Cc1c[nH]c2ccccc12)C(=O)N[C@@H](Cc1ccccc1)C(=O)N[C@@H](Cc1ccc(O)cc1)C(=O)N[C@H](C(=O)O)C(C)C [SSX2 41-49 (K41W)] | – | >10 | –
CC[C@H](C)[C@H](NC(=O)[C@H](CCCCN)NC(=O)[C@H](CCC(=O)O)NC(=O)[C@H](CO)NC(=O)[C@@H](NC(=O)[C@@H](N)Cc1c[nH]c2ccccc12)[C@@H](C)CC)C(=O)N[C@@H](Cc1ccccc1)C(=O)N[C@@H](Cc1ccc(O)cc1)C(=O)N[C@H](C(=O)O)C(C)C [SSX2 41-49 (K41W, A42I)] | – | 0.1 | –
CC[C@H](C)[C@H](NC(=O)[C@H](CCCCN)NC(=O)[C@H](CCC(=O)O)NC(=O)[C@H](CO)NC(=O)[C@@H](NC(=O)[C@@H](N)Cc1ccc(O)cc1)[C@@H](C)CC)C(=O)N[C@@H](Cc1ccccc1)C(=O)N[C@@H](Cc1ccc(O)cc1)C(=O)N[C@H](C(=O)O)C(C)C [SSX2 41-49 (K41Y, A42I)] | – | 1 | –
CC[C@H](C)[C@H](NC(=O)[C@H](CCCCN)NC(=O)[C@H](CCC(=O)O)NC(=O)[C@H](CO)NC(=O)[C@H](C)NC(=O)[C@@H](N)CCCCN)C(=O)N[C@@H](Cc1ccccc1)C(=O)N[C@@H](Cc1ccc(O)cc1)C(=O)N[C@H](C(=O)O)C(C)C [SSX2 41-49, reference compound] | – | 1 | –
FVSEKIFY(Aib) [SSX2 41-49 (K41F, A42V, V49Aib)] | – | >10 | –
FVSEKLFTA | – | >10 | –
FVSEKMFYV [SSX2 41-49 (K41F, A42V, I46M)] | – | >10 | –
FVSEKVFYV (T cell peptide epitope analog) [SSX2 41-49 (K41F, A42V, I46V)] | – | 1 | –
FVSNKIFYV [SSX2 41-49 (K41F, A42V, E44N)] | – | >10 | –
K(D-Ala)SEKIFYV [SSX2 41-49 (A42(D-Ala))] | – | 10 | –
K(D-Val)SEKIFYV [SSX2 41-49 (A42(D-Val))] | – | 3 | –
KASEKIFYV [SSX2 41-49-NH2] | – | >10 | –
KASEKIFYVY (T cell peptide epitope analog) [SSX-241-50, wild-type SSX-2 41-50 decamer, reference compound] | – | – | no immunological activity; also recorded: significantly less active
KLSEKIFYV [SSX2 41-49-NH2 (A42L)] | – | 3 | lower concentration
KNal-1SEKIFYV [SSX2 41-49 (A42(Nal-1))] | – | >10 | –
KVSEKIFYI [SSX2 41-49 (A42V, V49I)] | – | 0.3 | –
KVSEKIFYV [SSX2 41-49-NH2 (A42V)] | – | 10 | –
YLSEKIFYV-OH [SSX2 41-49 (K41Y, A42L)] | 1.2 | – | –
